These are literature values, as cited in patent US20080166695A1, “Solution for the storage and perfusion of organs awaiting transplantation” (Sigma-Tau Industrie Farmaceutiche Riunite S.p.A., priority 2001, published 2008).

In this series the test system is isolated rabbit heart. The following applies: isolated rabbit heart perfused with whole blood with L-carnitine added.

Turning to `C[N+](C)(C)C[C@H](O)CC(=O)[O-]` [L-carnitine], the “recovery of cardiac functions” value is on record as “protective effect”.
